T/C data for 18 molecules are collected here from PubChem BioAssay AID192 (DTP/NCI, 2004).

The test system of this experiment is BDF1 mice, B16 melanoma ip, median survival T/C. Nature of the experiment: NCI In Vivo Anticancer Drug Screen. Data for tumor model B16 Melanoma (intraperitoneal) in B6D2F1 (BDF1) mice. The note with it: endpoint: median survival time, higher = longer survival. The essentials: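 Transplantable tumor model; survival or tumor size measured; reported as T/C, treated over vehicle control.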

Where [1] appears, read: dose: 6.25 mg/kg/injection, schedule: Q01DX009 (ip), vehicle: saline with Tween-80.
The mark [2] stands for this setting: dose: 25.0 mg/kg/injection, schedule: Q01DX009 (ip), vehicle: Klucel (hydroxypropylcellulose) (HPC).
Where [3] appears, read: dose: 50.0 mg/kg/injection, schedule: Q01DX009 (ip), vehicle: Klucel (hydroxypropylcellulose) (HPC).
[4] abbreviates: dose: 50.0 mg/kg/injection, schedule: Q01DX009 (ip), vehicle: saline with Tween-80.
The mark [5] stands for this setting: dose: 100.0 mg/kg/injection, schedule: Q01DX009 (ip), vehicle: saline with Tween-80.
[6] abbreviates: dose: 100.0 mg/kg/injection, schedule: Q01DX009 (ip), vehicle: Klucel (hydroxypropylcellulose) (HPC).
Setting [7] is: dose: 200.0 mg/kg/injection, schedule: Q01DX009 (ip), vehicle: Klucel (hydroxypropylcellulose) (HPC).
The mark [8] stands for this setting: dose: 400.0 mg/kg/injection, schedule: Q01DX009 (ip), vehicle: Klucel (hydroxypropylcellulose) (HPC).
[9] abbreviates: dose: 12.5 mg/kg/injection, schedule: Q01DX009 (ip), vehicle: Klucel (hydroxypropylcellulose) (HPC).
Setting [10] is: dose: 50.0 mg/kg/injection, schedule: Q01DX009 (ip), vehicle: saline.
[11] abbreviates: dose: 25.0 mg/kg/injection, schedule: Q01DX009 (ip), vehicle: saline with Tween-80.
The mark [12] stands for this setting: dose: 25.0 mg/kg/injection, schedule: Q01DX009 (ip), vehicle: saline.
Where [13] appears, read: dose: 100.0 mg/kg/injection, schedule: Q01DX009 (ip), vehicle: saline.
Setting [14] is: dose: 200.0 mg/kg/injection, schedule: Q01DX009 (ip), vehicle: saline.

Where “and” joins values, the source holds several entries; their conditions need not be identical. Equal values may be shown once. Inconclusive results and toxic doses are left out.

Consider `CC1CCC2(OC1)OC1C(O)C3C4CCC5CC(OC6OC(CO)C(OC7OC(CO)C(O)C(OC8OCC(O)C(O)C8O)C7OC7OC(CO)C(O)C(OC8OC(CO)C(O)C(O)C8O)C7O)C(O)C6O)C(O)CC5(C)C4CCC3(C)C1C2C` (stereo unspecified), for which the T/C runs as follows: (dose: 0.62 mg/kg/injection, schedule: Q01DX009 (ip), vehicle: saline) 109 % of control; (dose: 1.25 mg/kg/injection, schedule: Q01DX009 (ip), vehicle: saline) 99 % of control; (dose: 2.5 mg/kg/injection, schedule: Q01DX009 (ip), vehicle: saline) 103 % of control; (dose: 5.0 mg/kg/injection, schedule: Q01DX009 (ip), vehicle: saline) 92 % of control.

In the case of `COc1cc(NS(C)(=O)=O)ccc1Nc1c2ccc(Cl)cc2nc2c(OC)cccc12`, the T/C runs as follows: (dose: 0.38 mg/kg/injection, schedule: Q01DX009 (ip), vehicle: saline with Tween-80) 123 % of control; (dose: 0.75 mg/kg/injection, schedule: Q01DX009 (ip), vehicle: saline with Tween-80) 110 % of control; (dose: 0.8 mg/kg/injection, schedule: Q01DX005 (iv), vehicle: water) 96 % of control; (dose: 0.8 mg/kg/injection, schedule: Q04DX003 (iv), vehicle: water) 100 % of control; (dose: 1.6 mg/kg/injection, schedule: Q01DX005 (iv), vehicle: water) 104 % of control; (dose: 1.6 mg/kg/injection, schedule: Q04DX003 (iv), vehicle: water) 92 % of control. The T/C was 156 % of control (dose: 2.3 mg/kg/injection, schedule: Q01DX009 (ip), vehicle: other); 152 % of control (dose: 3.0 mg/kg/injection, schedule: Q01DX009 (ip), vehicle: saline with Tween-80); 178 % of control (dose: 3.13 mg/kg/injection, schedule: Q01DX009 (ip), vehicle: saline with Tween-80); 106 % of control (dose: 3.3 mg/kg/injection, schedule: Q01DX005 (iv), vehicle: water); 96 % of control (dose: 3.3 mg/kg/injection, schedule: Q04DX003 (iv), vehicle: water); 184 % of control (dose: 4.5 mg/kg/injection, schedule: Q01DX009 (ip), vehicle: other). The T/C was 194 % of control under setting [1]; 109 % of control (dose: 6.5 mg/kg/injection, schedule: Q01DX005 (iv), vehicle: water); 105 % of control (dose: 6.5 mg/kg/injection, schedule: Q04DX003 (iv), vehicle: water); 178 % of control and 185 % of control (dose: 8.0 mg/kg/injection, schedule: Q01DX009 (ip), vehicle: saline with Tween-80); 241 % of control (dose: 9.0 mg/kg/injection, schedule: Q01DX009 (ip), vehicle: other); 152 % of control (dose: 9.0 mg/kg/injection, schedule: Q04DX003 (ip), vehicle: water). The T/C was 190 % of control and 219 % of control (dose: 12.0 mg/kg/injection, schedule: Q01DX009 (ip), vehicle: saline with Tween-80); 236 % of control (dose: 12.5 mg/kg/injection, schedule: Q01DX009 (ip), vehicle: saline with Tween-80); 111 % of control (dose: 13.0 mg/kg/injection, schedule: Q04DX003 (iv), vehicle: water); 196 % of control (dose: 18.0 mg/kg/injection, schedule: Q01DX009 (ip), vehicle: saline with Tween-80); 172 % of control (dose: 18.0 mg/kg/injection, schedule: Q04DX003 (ip), vehicle: water); 200 % of control (dose: 36.0 mg/kg/injection, schedule: Q04DX003 (ip), vehicle: water).

Take `COc1ccc(CCNC(C)=O)cc1OC`: the T/C under setting [2] is 91 % of control and the T/C under setting [3] is 89 % of control.

As to `CC(=O)NC(Cc1cc(I)c(OC(C)=O)c(I)c1)C(=O)O` (stereo unspecified), the T/C by setting is: under setting [4], 100 % of control; under setting [5], 97 % of control; (dose: 200.0 mg/kg/injection, schedule: Q01DX009 (ip), vehicle: saline with Tween-80) 90 % of control.

For the molecule `Cc1cc2no[n+]([O-])c2cc1C`, the T/C under setting [3] is 116 % of control, the T/C under setting [6] is 99 % of control and the T/C under setting [7] is 117 % of control.

`NNS(=O)(=O)c1ccc(OCC(=O)O)cc1`: the T/C by setting is: under setting [6], 98 % of control; under setting [7], 97 % of control; under setting [8], 93 % of control.

As to `CCO/C=C1\SC(=S)N(c2cccc(OC)c2)C1=O`, the T/C reads like this: under setting [9], 93 % of control and 98 % of control; under setting [2], 98 % of control and 107 % of control; (dose: 35.0 mg/kg/injection, schedule: Q01DX009 (ip), vehicle: saline) 98 % of control; under setting [3], 98 % of control; under setting [10], 100 % of control; (dose: 75.0 mg/kg/injection, schedule: Q01DX009 (ip), vehicle: saline) 91 % of control. Moreover, the T/C under setting [6] is 100 % of control and 102 % of control; the T/C (dose: 265.0 mg/kg/injection, schedule: Q04DX003 (ip), vehicle: Klucel (hydroxypropylcellulose) (HPC)) was 101 % of control; the T/C (dose: 400.0 mg/kg/injection, schedule: Q04DX003 (ip), vehicle: Klucel (hydroxypropylcellulose) (HPC)) was 97 % of control.

For `CC1=C(CCC(=O)O)c2cc3nc(cc4[nH]c(cc4C)cc4[nH]c(cc1n2)cc4C)C(C)(C)C3CCC(=O)O` (stereo unspecified), the T/C by setting is: (dose: 3.0 mg/kg/injection, schedule: Q01DX009 (ip), vehicle: Klucel (hydroxypropylcellulose) (HPC)) 109 % of control; (dose: 6.0 mg/kg/injection, schedule: Q01DX009 (ip), vehicle: Klucel (hydroxypropylcellulose) (HPC)) 101 % of control; (dose: 12.0 mg/kg/injection, schedule: Q01DX009 (ip), vehicle: Klucel (hydroxypropylcellulose) (HPC)) 90 % of control; (dose: 24.0 mg/kg/injection, schedule: Q01DX009 (ip), vehicle: Klucel (hydroxypropylcellulose) (HPC)) 104 % of control.

Take `CCNC(=O)OCc1c(COC(=O)NCC)c(-c2ccc(Cl)c(Cl)c2)n2c1CCC2`: the T/C was 122 % of control under setting [1] and 90 % of control under setting [11].

Regarding `C(=C\c1cccnc1)/c1ccncc1`, the T/C (dose: 66.0 mg/kg/injection, schedule: Q01DX009 (ip), vehicle: saline with Tween-80) is 96 % of control and the T/C under setting [5] was 93 % of control.

Turning to `CC(=O)CC(c1ccccc1)c1c(O)c2ccccc2oc1=O` (stereo unspecified), the T/C is, setting by setting: (dose: 0.05 mg/kg/injection, schedule: Q01DX009 (ip), vehicle: saline with Tween-80) 107 % of control; (dose: 0.1 mg/kg/injection, schedule: Q01DX009 (ip), vehicle: saline with Tween-80) 98 % of control; (dose: 0.2 mg/kg/injection, schedule: Q01DX009 (ip), vehicle: saline with Tween-80) 104 % of control; (dose: 0.8 mg/kg/injection, schedule: Q01DX009 (ip), vehicle: saline with Tween-80) 90 % of control.

In the case of `O=P(NC12CC3CC(CC(C3)C1)C2)(N1CC1)N1CC1`, the T/C (dose: 4.4 mg/kg/injection, schedule: Q01DX009 (ip), vehicle: Klucel (hydroxypropylcellulose) (HPC)) was 100 % of control and the T/C (dose: 6.6 mg/kg/injection, schedule: Q01DX009 (ip), vehicle: Klucel (hydroxypropylcellulose) (HPC)) was 110 % of control.

As to `Nc1cccc(=O)[nH]1`, the T/C (dose: 12.5 mg/kg/injection, schedule: Q01DX009 (ip), vehicle: saline) is 90 % of control; the T/C under setting [12] was 98 % of control; the T/C under setting [10] is 98 % of control; the T/C under setting [13] was 98 % of control; the T/C under setting [14] was 90 % of control; the T/C (dose: 400.0 mg/kg/injection, schedule: Q01DX009 (ip), vehicle: saline) is 92 % of control.

As for `c1ccc2sc(SSN3CCOCC3)nc2c1`, the T/C under setting [9] is 97 % of control and the T/C under setting [3] is 94 % of control.

On to `CCC(C)(O)CCc1ccccc1` (stereo unspecified), for which the T/C under setting [6] is 113 % of control, the T/C under setting [7] was 113 % of control and the T/C under setting [8] is 100 % of control.

With `CN1CCC=C(CN2c3ccccc3Sc3ccccc32)C1`, the T/C reads like this: under setting [12], 104 % of control; under setting [10], 106 % of control.

For `c1ccc(OP2OCCO2)cc1`, the T/C was 88 % of control under setting [12], 100 % of control under setting [10], 105 % of control under setting [13] and 91 % of control under setting [14].

Turning to `O=C(O)c1cc(C(=O)O)cc([N+](=O)[O-])c1`, the T/C was 97 % of control under setting [11] and 100 % of control under setting [4].
